Values of other authors in patent publication US20120129799A1, “STABLE COMPOSITION OF READY-TO-USE GEMCITABINE INJECTION” (ASTRON RESEARCH LIMITED, priority 2009, published 2012).
Entries after “also recorded” stand apart in the source; their conditions may differ.

Experiments:
[1] = higher pH (5.0 to 9.0)

degradation products obtained (aqueous solution, pH 3.2 (sodium acetate), thermally stressed conditions): four significant degradation products
chemical stability of aqueous solution (aqueous solution, pH of approximately 3.0): not chemically stable
stability in aqueous solution (higher pH (5.0 to 9.0)): remains stable
stability (lower pH): poor stability
SMILES: Nc1ccn([C@@H]2O[C@H](CO)[C@@H](O)C2(F)F)c(=O)n1 [Gemcitabine, 1-(2-oxo-4-amino-1,2-dihydropyrimidin-1-yl)-2-deoxy-2,2-difluororibose]
aqueous solubility [1]: low aqueous solubility; also recorded: very low solubility
